From patent publication US10112937B2, “P2X7 modulators and methods of use” (Janssen Pharmaceutica NV, priority 2013, dated 2018)
pIC50, pKi: −log10 of the molar value.

Assays:
human P2X7 [1] = target: T1, human P2X7 (Homo sapiens (Human), UniProt Q99572); experiment: P2X7 antagonism in human PBMCs (IL-1β release after LPS + Bz-ATP, ELISA); assay type: cell-based; settings: test compound 10 μM
human P2X7 [2] = target: T1, human P2X7; experiment: P2X7 antagonism in human whole blood (IL-1β release after LPS + Bz-ATP, ELISA); assay type: cell-based; settings: LPS 30 ng/ml + 1 mM Bz-ATP
Protocol: P2X7 Antagonism in Human Peripheral Blood Mononuclear Cells (PBMCs) and Human Whole Blood.
Human blood was collected using a blood donor program. PBMCs were isolated from blood using a Ficoll density gradient technique. Briefly, blood was laid on Ficoll solution and centrifuged at RT for 20 minutes at 2000 rpm. The buffy layer (between red blood cells and plasma) was carefully collected by aspiration, washed with PBS and centrifuged again at 1500 rpm for 15 minutes. The resulting cell pellet was washed and plated on 96 well-plates for experiments. For the Human Whole Blood experiments, 150 μl of human blood was platted on 96 well-plates. Lipopolysaccharide (LPS) (30 ng/ml) was added to each well and incubated for 1 hour. Test compounds were then added and incubated for 30 minutes. The P2X7 agonist, 2′(3′)-O-(4-benzoylbenzoyl) adenosine 5′ triphosphate (Bz-ATP) was then added at a final concentration of 0.5 mM (PBMC) or 1 mM (blood). Cells were incubated for an additional 1.5 hours. At that point, supernatant was collected and stored for IL-1β assay using manufacturer's protocol for enzyme-linked immunosorbent assay (ELISA). Data was expressed as percent control, where control is defined as the difference in IL-1β release in LPS+Bz-ATP samples and LPS only samples. […] Data are analyzed and graphed on Graphpad Prism 5. […]

human P2X7 [3] = target: T1, human P2X7; experiment: Ca2+ flux (FLIPR) in 1321N1 cells expressing recombinant human P2X7; assay type: cell-based; settings: 1321N1 cells, recombinant human P2X7, 250 μM BzATP;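 also: cells loaded with Calcium-4 dye, preincubated with test compound for 30 min, fluorescence change read 180 s after agonist addition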
Protocol: (§1) P2X7 Antagonism in Recombinant Human P2X7 Cells or Recombinant Rat P2X7 Cells: (a) Ca^2+ Flux and (b) Radioligand Binding
(§2) 1321N1 cells expressing the recombinant human or rat P2X7 channel was cultured in HyQ DME/(HyClone/Dulbecco's Modified Eagle Medium) high glucose supplemented with 10% Fetal Bovine Serum (FBS) and appropriate selection marker. Cells were seeded at a density of 25000 cells/well (96-well clear bottom black walled plates) in 100 μl volume/well. On the day of the experiment, cell plates were washed with assay buffer, containing (in mM): 130 NaCl, 2 KCl, 1 CaCl2, 1 MgCl2, 10 HEPES, 5 glucose; pH 7.40 and 300 mOs. After the wash, cells were loaded with the Calcium-4 dye (Molecular Device) and incubated in the dark for 60 minutes. Test compounds were prepared at 250× the test concentration in neat DMSO. Intermediate 96-well compound plates were prepared by transferring 1.2 μL of the compound into 300 μL of assay buffer. A further 3× dilution occurred when transferring 50 μL/well of the compound plate to 100 μL/well in the cell plate. Cells were incubated with test compounds and dye for 30 minutes. […] The fluorescence change was measured 180 seconds after adding the agonist.

rat P2X7 [4] = target: T2, rat P2X7 (Rattus norvegicus (Rat), UniProt Q64663); experiment: Ca2+ flux (FLIPR) in 1321N1 cells expressing recombinant rat P2X7; assay type: cell-based; settings: 1321N1 cells, recombinant rat P2X7, 250 μM BzATP;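 also: Calcium-4 dye fluorescence change read 180 s after agonist addition, with cells preincubated 30 min with compound and dye in 96-well plates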
Protocol: as §1, §2

rat P2X7 [5] = target: T2, rat P2X7; experiment: Radioligand binding ([3H]A-804598), rat P2X7-1321N1 cell membranes; settings: rat P2X7-1321N1 membranes, tritiated A-804598
Protocol: (§3) human or rat P2X7-1321N1 cells were collected and frozen @−80° C. On the day of the experiment, cell membrane preparations were made according to standard published methods. […] The assay was terminated by filtration (GF/B filters pre-soaked with 0.3% PEI) and washed with washing buffer (Tris-HCl 50 mM). The IC50 generated in the binding assay was corrected for tracer concentration and affinity of the tracer to derive at the affinity (Ki) of the test compounds. […] For analysis, each concentration point is averaged from triplicate values and the averaged values are plotted on Graphpad Prism.

human P2X7 [6] = target: T1, human P2X7; experiment: Radioligand binding ([3H]A-804598), human P2X7-1321N1 cell membranes; settings: human P2X7-1321N1 membranes, tritiated A-804598
Protocol: as §3

T2 sequence (Q64663 whole entry): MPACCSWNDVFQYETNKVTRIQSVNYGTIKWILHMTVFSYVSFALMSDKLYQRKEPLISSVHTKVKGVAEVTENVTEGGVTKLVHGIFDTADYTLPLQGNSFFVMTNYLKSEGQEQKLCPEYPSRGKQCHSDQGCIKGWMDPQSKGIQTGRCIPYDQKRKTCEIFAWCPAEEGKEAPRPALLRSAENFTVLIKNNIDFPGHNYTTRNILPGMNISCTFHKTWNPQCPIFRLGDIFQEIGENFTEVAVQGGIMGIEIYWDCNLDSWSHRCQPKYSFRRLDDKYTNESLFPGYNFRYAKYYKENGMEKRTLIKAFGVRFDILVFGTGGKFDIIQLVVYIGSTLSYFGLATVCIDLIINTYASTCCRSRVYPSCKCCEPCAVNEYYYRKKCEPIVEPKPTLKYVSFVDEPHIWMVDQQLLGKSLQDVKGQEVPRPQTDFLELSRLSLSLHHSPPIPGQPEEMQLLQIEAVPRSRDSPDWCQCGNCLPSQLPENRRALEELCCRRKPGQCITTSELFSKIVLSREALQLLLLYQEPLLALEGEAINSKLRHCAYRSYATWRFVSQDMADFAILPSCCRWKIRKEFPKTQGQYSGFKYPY
T1 sequence (Q99572 whole entry): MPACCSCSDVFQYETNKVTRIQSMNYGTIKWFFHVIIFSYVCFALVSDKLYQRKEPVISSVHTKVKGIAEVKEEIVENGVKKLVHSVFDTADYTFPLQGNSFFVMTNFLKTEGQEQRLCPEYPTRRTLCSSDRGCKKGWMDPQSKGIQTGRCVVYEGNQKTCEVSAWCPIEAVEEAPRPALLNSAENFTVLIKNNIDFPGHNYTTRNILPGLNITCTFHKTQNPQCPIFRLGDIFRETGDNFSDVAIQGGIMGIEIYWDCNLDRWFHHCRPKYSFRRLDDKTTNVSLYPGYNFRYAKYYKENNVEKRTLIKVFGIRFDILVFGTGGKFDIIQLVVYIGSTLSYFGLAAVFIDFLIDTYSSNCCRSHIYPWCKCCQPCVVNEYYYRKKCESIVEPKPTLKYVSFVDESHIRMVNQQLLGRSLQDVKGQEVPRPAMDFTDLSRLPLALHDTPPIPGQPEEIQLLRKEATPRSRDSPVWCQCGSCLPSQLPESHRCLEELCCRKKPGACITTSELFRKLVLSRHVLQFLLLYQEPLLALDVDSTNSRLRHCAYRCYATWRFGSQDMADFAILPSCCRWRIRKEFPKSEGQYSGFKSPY

| PBMC 10 μM (% control) (human P2X7 [1]; human PBMCs) | pIC50 (human P2X7 [2]) | PBMC 10 μM (% control) (human P2X7 [1]; LPS 30 ng/ml + 0.5 mM Bz-ATP) | pIC50 (human P2X7 [3]) | pIC50 (rat P2X7 [4]) | pKi (rat P2X7 [5]) | pKi (human P2X7 [6]) | Compound |
| --- | --- | --- | --- | --- | --- | --- | --- |
| −3.7 % control | 7.77 |  |  |  |  |  | Cc1ccnc(-n2nnc3c2CCN(C(=O)c2cccc(C(F)(F)F)c2Cl)[C@@H]3C)n1 (single isomer, unassigned) [Example 235, (4R*)-(2-Chloro-3-(trifluoromethyl)phenyl)(4-methyl-1-(4-methylpyrimidin-2-yl)-6,7-dihydro-1H-[1,2,3]triazolo[4,5-c]pyridin-5(4H)-yl)methanone] |
| 14.3 % control |  | −3.7 % control | 8.77 | 7.70 | 8.80 |  | C[C@@H]1c2nnn(-c3ncccn3)c2CCN1C(=O)c1cccc(C(F)(F)F)c1F (single isomer, unassigned) [Example 271, (R*)-(2-fluoro-3-(trifluoromethyl)phenyl)(4-methyl-1-(pyrimidin-2-yl)-6,7-dihydro-1H-[1,2,3]triazolo[4,5-c]pyridin-5(4H)-yl)methanone] |
| −2.3 % control |  |  | 8.37 | 7.37 | 7.33 | 7.75 | Cc1cc(-n2nnc3c2CCN(C(=O)c2ccnc(C(F)(F)F)c2Cl)[C@@H]3C)ncc1F (single isomer, unassigned) [Example 371, (R*)-(3-chloro-2-(trifluoromethyl)pyridin-4-yl)(1-(5-fluoro-4-methylpyridin-2-yl)-4-methyl-6,7-dihydro-1H-[1,2,3]triazolo[4,5-c]pyridin-5(4H)-yl)methanone] |
